Test results as given in the supplement of paper PMC11451515.

Tested on: SEM cells
Test: cell viability relative to DMSO control; higher = less cytotoxic
Details: 48 h
In short: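 Leukemia cells (NOMO1 or SEM, 500 cells/well; P12-Ichikawa, 1000 cells/well) were seeded in 5 μl in 1536-well plates after at least four passages of adaptation to each medium. They received library compounds in DMSO by pin dosing, 11 threefold points from 47 μM to 0.79 nM. Luminescence with CellTiter-Glo One was read after 48 h at 37°C. Viability is stated per plate relative to DMSO wells, with cell-free wells as background.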

[1] = HPLM + 10% dialyzed FBS, 0.000781 µM
[2] = HPLM + 10% dialyzed FBS, 0.00234 µM
[3] = HPLM + 10% dialyzed FBS, 0.00702 µM
[4] = HPLM + 10% dialyzed FBS, 0.0211 µM
[5] = HPLM + 10% dialyzed FBS, 0.0632 µM
[6] = HPLM + 10% dialyzed FBS, 0.19 µM
[7] = HPLM + 10% dialyzed FBS, 0.569 µM
[8] = HPLM + 10% dialyzed FBS, 1.71 µM
[9] = HPLM + 10% dialyzed FBS, 5.12 µM
[10] = HPLM + 10% dialyzed FBS, 15.4 µM
[11] = HPLM + 10% dialyzed FBS, 46.1 µM
[12] = RPMI 5 mM glucose + 10% FBS, 0.000781 µM
[13] = RPMI 5 mM glucose + 10% FBS, 0.00234 µM
[14] = RPMI 5 mM glucose + 10% FBS, 0.00702 µM
[15] = RPMI 5 mM glucose + 10% FBS, 0.0211 µM
[16] = RPMI 5 mM glucose + 10% FBS, 0.0632 µM
[17] = RPMI 5 mM glucose + 10% FBS, 0.19 µM
[18] = RPMI 5 mM glucose + 10% FBS, 0.569 µM
[19] = RPMI 5 mM glucose + 10% FBS, 1.71 µM
[20] = RPMI 5 mM glucose + 10% FBS, 5.12 µM
[21] = RPMI 5 mM glucose + 10% FBS, 15.4 µM
[22] = RPMI 5 mM glucose + 10% FBS, 46.1 µM
[23] = RPMI 5 mM glucose + 10% dialyzed FBS, 0.000781 µM
[24] = RPMI 5 mM glucose + 10% dialyzed FBS, 0.00234 µM
[25] = RPMI 5 mM glucose + 10% dialyzed FBS, 0.00702 µM
[26] = RPMI 5 mM glucose + 10% dialyzed FBS, 0.0211 µM
[27] = RPMI 5 mM glucose + 10% dialyzed FBS, 0.0632 µM
[28] = RPMI 5 mM glucose + 10% dialyzed FBS, 0.19 µM
[29] = RPMI 5 mM glucose + 10% dialyzed FBS, 0.569 µM
[30] = RPMI 5 mM glucose + 10% dialyzed FBS, 1.71 µM
[31] = RPMI 5 mM glucose + 10% dialyzed FBS, 5.12 µM
[32] = RPMI 5 mM glucose + 10% dialyzed FBS, 15.4 µM
[33] = RPMI 5 mM glucose + 10% dialyzed FBS, 46.1 µM

| SMILES | cell viability [1] [%] | cell viability [2] [%] | cell viability [3] [%] | cell viability [4] [%] | cell viability [5] [%] | cell viability [6] [%] | cell viability [7] [%] | cell viability [8] [%] | cell viability [9] [%] | cell viability [10] [%] | cell viability [11] [%] | cell viability [12] [%] | cell viability [13] [%] | cell viability [14] [%] | cell viability [15] [%] | cell viability [16] [%] | cell viability [17] [%] | cell viability [18] [%] | cell viability [19] [%] | cell viability [20] [%] | cell viability [21] [%] | cell viability [22] [%] | cell viability [23] [%] | cell viability [24] [%] | cell viability [25] [%] | cell viability [26] [%] | cell viability [27] [%] | cell viability [28] [%] | cell viability [29] [%] | cell viability [30] [%] | cell viability [31] [%] | cell viability [32] [%] | cell viability [33] [%] |
| --- | --- | --- | --- | --- | --- | --- | --- | --- | --- | --- | --- | --- | --- | --- | --- | --- | --- | --- | --- | --- | --- | --- | --- | --- | --- | --- | --- | --- | --- | --- | --- | --- | --- |
| CCCCN1CCC(CNC(=O)c2c3n(c4ccccc24)CCCO3)CC1 | 81.3 | 85.3 | 92.1 | 90.9 | 94.5 | 57.7 | 117 | 107 | 108 | 89.7 | 68.4 | 84.9 | 102 | 112 | 91.3 | 117 | 75.3 | 105 | 118 | 113 | 93.5 | 80.6 | 105 | 101 | 110 | 94.4 | 111 | 67.5 | 103 | 103 | 115 | 79 | 79.8 |
| COc1cc2c(cc1O)CCC1C2CC[C@@]2(C)C1CC[C@@H]2O (stereo partly drawn) | 88.7 | 114 | 98.4 | 25.9 | 108 | 113 | 95.8 | 73.2 | 40.7 | 31.4 | 26.2 | 120 | 108 | 129 | 22 | 124 | 125 | 107 | 84.2 | 49.1 | 23.5 | 21.7 | 116 | 118 | 126 | 24.6 | 118 | 123 | 108 | 88.7 | 40.2 | 26.5 | 28.2 |
| Clc1ccc(CCC(Cn2ccnc2)Sc2c(Cl)cccc2Cl)cc1 (stereo not drawn) | 73 | 71.5 | 77.3 | 83.5 | 72.8 | 95 | 76.3 | 77.3 | 80.1 | 76.8 | 61.2 | 78.7 | 88 | 97.7 | 89.7 | 85.7 | 83.6 | 101 | 100 | 92.6 | 86.1 | 52.5 | 78.8 | 88.7 | 100 | 92.5 | 82 | 103 | 89.4 | 77.4 | 76.9 | 85.3 | 57.3 |
| CC(C)[C@H](C(=O)Nc1ccc(C(=O)NO)cc1)c1ccccc1 | – | – | – | – | – | – | – | – | – | – | – | 115 | 116 | 126 | 140 | 139 | 148 | 133 | 74.7 | 11.3 | 9.31 | 9.34 | 105 | 101 | 121 | 121 | 120 | 120 | 111 | 56.6 | 8.81 | 8.39 | 8.47 |
| Cc1nc2ccc(CN(C)c3ccc(C(=O)N[C@@H](CCC(=O)O)C(=O)O)s3)cc2c(=O)[nH]1 | 90.3 | 93.1 | 101 | 103 | 64.1 | 45 | 41.4 | 42.7 | 35.4 | 39.3 | 38.3 | 96.5 | 115 | 103 | 104 | 118 | 99 | 93 | 85.6 | 83.3 | 82.1 | 82.1 | 98.7 | 113 | 113 | 118 | 106 | 45.9 | 33.2 | 35.3 | 29.6 | 32.4 | 30.5 |
| CN(C)C(=O)[C@H](O)[C@H](Cc1ccccc1)NC(=O)c1cc2cc(Cl)ccc2[nH]1 | 98.5 | 109 | 107 | 118 | 122 | 119 | 109 | 86.1 | 14 | 11.2 | 7.62 | 95.8 | 80.9 | 81.7 | 86.3 | 108 | 94.6 | 104 | 81.2 | 14 | 8.95 | 6.87 | 85.2 | 108 | 105 | 100 | 111 | 105 | 105 | 77.9 | 18.8 | 8.36 | 6.18 |
| CCOc1ccccc1N/N=C1/C(=O)N(c2nc(-c3ccccc3)cs2)N=C1C | 124 | 114 | 93 | 122 | 105 | 99.2 | 100 | 86.4 | 45.9 | 8.56 | 3.58 | 103 | 114 | 102 | 116 | 144 | 110 | 111 | 70.7 | 70 | 9.65 | 2.74 | 114 | 106 | 101 | 115 | 106 | 97.4 | 81.7 | 77.1 | 59.4 | 9.71 | 3.01 |
| OC1=C(Cl)C=C(N\C2=C(\C(=O)NC2=O)C3=C(C=CC=C3)[N+]([O-])=O)C=C1 | 78.4 | 92.9 | 105 | 96.9 | 93 | 102 | 98 | 115 | 86.9 | 56.3 | 6 | 103 | 109 | 106 | 123 | 109 | 120 | 104 | 104 | 93.6 | 60.8 | 25.2 | 94.7 | 99.1 | 98.2 | 99.4 | 113 | 98.9 | 116 | 110 | 88.2 | 62.8 | 27.2 |
